In patent publication US9063122B2, “Biomodulators for treatment or prevention of disease” (priority 2008, dated 2015):

What was measured:
[1] = system: white cells; settings: in vitro; cited from earlier work
[2] = system: cardiac cells (myoblasts); settings: cited from earlier work
[3] = system: C2C12 muscle stem cells; assay: C2C12 muscle stem cell culture with immunocytochemistry (Pax7, MyoD, Ki67, MHC); format: cell-based; settings: for number of stem cells in culture: FIG. 2, TIBA at low to mid-level concentrations (range tested 0.0001-0.1 μg/ml)
Experimental: (§1) Reagents: The auxin 2,4-Dichlorophenoxyacetic acid, and auxin antagonist, TIBA (2,3,5-triiodobenzoic acid), are purchased from Sigma-Aldrich (St. Louis, Mo.), After dissolving, these compounds are stored at −20° C. Concentrations used are 0.0001, 0.001, 0.01 and 0.1 μg/ml.
C2C12 muscle stem cells are used. Cells from low-passage frozen stocks are seeded in a 10 cm culture dish. After reaching 60% confluence, cells are passaged into an 8-well chamber slide (BD Biosciences, CA, USA). C2C12 cells are seeded on an 8-well chamber slide (3.5×10^3 cells/well). On day 3 after exposure to biomodulator or control, cells are fixed for immunocytochemistry (ICC) of MyoD and Ki67. For MHC and Pax7 immunostaining, cell culture media is replaced from the growth media (GM) to the differentiation media (DM) to induce terminal differentiation at day 5, and then cells are fixed for ICC of MHC and Pax7 at day 8. Media change and compound administration are performed daily.
For ICC, cells are fixed with 4% paraformaldehyde (PFA)/PBS for 20 min at ambient temperature. After being washed with PBS, cells are soaked in 0.1% Triton-X/PBS for 15 min at RT and blocked with 5% normal goat serum (NGS)/PBS to inhibit non-specific binding of antibodies for 60 min at ambient temperature. Primary antibodies are applied, and cells are incubated overnight at 4° C. The primary antibodies are anti-Pax7 mouse monoclonal (Developmental Studies Hybridoma Bank (DSHB), IA), anti-MyoD mouse monoclonal (DSHB), anti-Myosin Heavy Chain mouse monoclonal (MF20; DSHB) and anti-Ki67 rabbit polyclonal (Thermo Fisher Scientific, CA) antibodies.

[4] = system: C33A cervical carcinoma cells; assay: Cellular ATP level (ViaLight) cell viability assay; format: cell-based; settings: 0.5 μM, 72 hours after treatment
From the text: (§2) Selected cell lines include C33A cervical carcinoma cells, Mrc-5 normal lung fibroblasts, PC-3 human prostatic carcinoma cell line, OVCAR-3 human ovarian carcinoma cell line, H460 non-small cell lung cancer cell line, A549 human lung carcinoma cell line, H1299 human non-small cell lung cancer cells, MCF-7 human breast cancer cell line, SW-480 human adenocarcinoma cell line, B16-F1 mouse melanoma cell line (American Type Culture Collection, Manassas, Va., USA), HMEC normal mammary epithelial cells (Clonetics San Diego, Calif., USA) and ADR-RES human breast cancer cell line (NCI, MD, USA), which are cultured in the media recommended by the American Type Culture Collection. The cell lines are plated in 96-well microliter plates (PerkinElmer Life Sciences Inc., Boston, Mass., USA) at a confluency that allows them to reach confluence after 4 days of growth. One day after plating, the cells are treated with various concentrations of biomodulator. Stock solutions of the biomodulator are prepared in dimethyl sulfoxide (Sigma-Aldrich Inc., St. Louis, Mo., USA), diluted in the recommended media and then added to the cells. The total dimethyl sulfoxide on the cells is 1%. After 3 days of incubation the ATP levels in the cells are quantified using a luminescent ViaLight detection system (Bio-Whittaker, MD, USA). […]

[5] = system: H1299 human non-small cell lung cancer cells; assay: Cellular ATP level (ViaLight) cell viability assay; format: cell-based; settings: 0.5 μM, 72 hours after treatment
From the text: as §2

[6] = system: ten different cancer cell lines; assay: Cellular ATP level (ViaLight) assay, panel of cancer cell lines; format: cell-based; settings: various concentrations
From the text: as §2

[7] = system: murine colonic tumor, colon 26; assay: Treatment of colon 26 tumors in mice; format: in vivo, CDF1 mice; settings: 1 mg in 1 ml on days 7, 11 and 15, under the skin of the back and into tail vein; palpation
Experimental: Treatment of tumors in mice. A pharmaceutical composition of biomodulator 3-indolyl-acetic acid, or 6-furfurylaminopurine are prepared at 10 mg in 10 ml of physiological saline. 10 mg of a murine colonic tumor, colon 26, is inoculated under the skin of the back of CDF1 mice (day 0). After one week, the tumor is measured to calculate the volume of the tumor and the mice are classified into several groups (each group: n=5). On days 7, 11 and 15, the tumor-inoculated mice are bolusly injected under the skin of their backs and into their tail veins with 1 mg of the biomodulator in a volume of 1 ml. Control and comparative groups of mice are similarly injected with saline. Complete regression of the colonic tumor is determined by palpation. Subjects in which the tumor […] by palpation on the 60th day are deemed to have their tumors cured completely.

[8] = system: C2C12 muscle stem cells; assay: WST-1 cell growth assay; format: cell-based; settings: day 3; 0.001 μg/ml and 0.0001 μg/ml
Experimental: as §1
Cell growth parameters are measured by WST assay. Cell proliferation reagent WST-1 is purchased from Roche (NJ). Assays are performed according to the manufacturer's protocol. Cells are seeded on a 96-well cell culture plate (1.5×10^3 cells/well), and absorbance (A450-A690) is measured at day 3.

[9] = system: fibroblasts in human skin; settings: cited from earlier work
[10] = system: human myeloid leukaemia cells; settings: cited from earlier work

## CC1=CC(=O)CC(C)(C)[C@@]1(O)/C=C/C(C)=C\C(=O)O [ABA, Abscisic acid]
[1]
  phagocytosis in white cells: stimulation of phagocytosis

## c1nc2nc(Nc3ccc(N4CCOCC4)cc3)nc(NC3CCCCC3)c2[nH]1 [reversine]
[2]
  de-differentiation of cells: de-differentiate into osteoblasts and adipocytes

## O=C(O)COc1ccc(Cl)cc1Cl [auxin, 2,4-Dichlorophenoxyacetic acid]
[3]
  number of stem cells in culture: opposite that of TIBA
[3]; FIG. 4, high Auxin concentrations
  global cell proliferation: reduced
[3]; FIG. 5, low auxin concentration
  myotube formation: increase
[3]; FIG. 5, mid to high auxin concentration (0.01 μg/ml)
  myotube formation: reduced

## O=C(O)Cc1c[nH]c2ccccc12 [3-indolyl-acetic acid]
[4]
  lowering of ATP levels compared with normal cell lines HMEC and MRC-5: significantly more effective at lowering ATP levels
[5]
  lowering of ATP levels compared with normal cell lines HMEC and MRC-5: significantly more effective at lowering ATP levels
[6]
  decrease of cellular ATP levels compared with HMEC normal mammary epithelial cell line: greater efficacy in decreasing cellular ATP levels
[7]
  tumor regression: produces tumor regression

## O=C(O)c1cc(I)cc(I)c1I [TIBA, 2,3,5-triiodobenzoic acid]
[3]
  number of stem cells in culture: reduces the number of stem cells
[3]; FIG. 6, increased concentrations of TIBA
  myotube formation: increased myotube formation
[3]; day 3
  number of MyoD positive myoblasts: dose-dependent decrease
[8]
  cell number, WST-1 cell growth assay: increases cell number

## c1coc(CNc2ncnc3nc[nH]c23)c1 [6-furfurylaminopurine]
[7]
  tumor regression: produces tumor regression
[9]
  life span of fibroblasts: prolongs the life span of fibroblasts
[10]
  granulocytic differentiation and apoptosis: induction of granulocytic differentiation
